The target in the assay is T1, Farnesyl pyrophosphate synthase (Homo sapiens, UniProt P14324).
T1 sequence (P14324 whole entry): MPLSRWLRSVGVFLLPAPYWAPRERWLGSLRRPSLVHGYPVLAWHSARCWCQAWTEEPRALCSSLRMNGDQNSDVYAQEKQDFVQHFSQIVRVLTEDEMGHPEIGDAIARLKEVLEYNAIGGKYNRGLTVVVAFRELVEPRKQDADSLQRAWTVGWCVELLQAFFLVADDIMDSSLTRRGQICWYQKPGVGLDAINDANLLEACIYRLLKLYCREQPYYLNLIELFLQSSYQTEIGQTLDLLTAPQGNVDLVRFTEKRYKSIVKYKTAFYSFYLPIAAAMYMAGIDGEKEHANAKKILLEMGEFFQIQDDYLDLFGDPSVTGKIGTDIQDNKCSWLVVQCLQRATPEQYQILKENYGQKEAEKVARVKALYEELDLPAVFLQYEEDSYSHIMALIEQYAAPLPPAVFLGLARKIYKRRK
The assay can be described thus: Biophysical assay. The conditions noted are these: pH 7.4; 23 °C. The text has this:
A biophysical assay using NMR spectroscopy to identify fragments with higher binding affinity to human recombinant FPPS.

A word on the IC50: it is the concentration that inhibits the measured activity by half. Read a high IC50 as lower potency. On to `O=C(O)Cc1sc2ccccc2c1Cl` [2-(3-Chlorobenzo[b]thiophen-2-yl)acetic acid, 6], for which half-maximal inhibition (IC50) required 12 µM.
Molecule `CC(C(=O)O)c1cc2c(Cl)cccc2s1` (centres undefined) [2-(4-Chlorobenzo[b]thiophen-2-yl)propanoic acid, 5] came in with a half-maximal inhibitory concentration (IC50) of 80 µM.
`O=C(O)c1cc(Cn2c(C(=O)O)cc3ccc4ccccc4c32)on1` [5-((2-Carboxy-1H-benzo[g]indol-1-yl)methyl)isoxazole-3-carboxylic acid, 12] displayed an IC50 of 0.08 µM.
Take `Cc1c(CC(=O)O)sc2ccc(Cl)cc12` [CID68686]: the IC50 is > 500 µM.

The values above are taken from BindingDB's records for doi:10.1038/nchembio.421 (Novartis Institutes for BioMedical Research, 2010).
